Values quoted from earlier work as cited in patent US10744140B2, “Synergistic nutraceutical beverage formulations providing enhanced thermogenesis, mental clarity, and stamina while minimizing adrenaline and dopamine concentration perturbations associated with withdrawal” (Power Supplements, LLC., priority 2016, dated 2020).

What was measured:
[1] = biological target: T1, rat trace amine receptor (rTAR1) (Rattus norvegicus, UniProt Q923Y9); conditions: 1 μM, HEK 293 cells
T1 construct: expressed in transfected cells; host or cells: HEK 293
T1 sequence (Q923Y9 whole entry): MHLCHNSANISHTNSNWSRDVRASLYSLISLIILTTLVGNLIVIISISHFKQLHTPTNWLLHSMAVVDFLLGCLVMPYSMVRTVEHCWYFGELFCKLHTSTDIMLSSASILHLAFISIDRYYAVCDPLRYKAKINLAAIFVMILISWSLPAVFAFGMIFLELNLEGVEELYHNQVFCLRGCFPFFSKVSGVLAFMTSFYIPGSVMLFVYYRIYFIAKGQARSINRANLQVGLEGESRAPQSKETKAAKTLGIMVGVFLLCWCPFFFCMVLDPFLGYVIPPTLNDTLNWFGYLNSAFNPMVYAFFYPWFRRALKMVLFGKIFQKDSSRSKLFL

rhesus monkey TAAR1 = biological target: T2, rhesus monkey TAAR1 (Macaca mulatta, UniProt Q8HZ64); conditions: HEK293 cells transfected with rhesus monkey TAAR1, CRE-Luc reporter
T2 construct: expressed in transfected cells; host or cells: HEK293 (transient, with CRE-Luc and pGL4.73 reporters)
T2 sequence (Q8HZ64 1-338): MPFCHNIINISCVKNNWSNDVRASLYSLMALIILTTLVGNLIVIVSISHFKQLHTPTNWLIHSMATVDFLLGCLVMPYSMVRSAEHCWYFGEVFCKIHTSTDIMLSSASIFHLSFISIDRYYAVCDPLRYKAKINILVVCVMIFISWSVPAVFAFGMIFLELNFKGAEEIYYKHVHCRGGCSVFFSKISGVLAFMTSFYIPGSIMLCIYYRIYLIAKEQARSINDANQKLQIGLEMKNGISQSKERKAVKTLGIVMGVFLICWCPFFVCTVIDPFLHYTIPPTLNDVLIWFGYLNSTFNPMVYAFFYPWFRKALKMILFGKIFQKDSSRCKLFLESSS

primate brain = conditions: acute administration
humans = conditions: higher of two single doses (100 mg, 250 mg)
young females = conditions: 50 mg, two months
[2] = tested on: DAT (dopamine transporter); conditions: cells expressing TAAR1 and DAT
[3] = tested on: NET (norepinephrine transporter); conditions: cells expressing TAAR1 and NET
[4] = tested on: SERT (serotonin transporter); conditions: cells expressing TAAR1 and SERT

NCCc1ccc(O)cc1 [tyramine]
potency in stimulating cAMP production through the rTAR1 [1]: slightly higher than that of hordenine | TAAR1 activation (cAMP production) (rhesus monkey TAAR1): activates TAAR1

Cc1ncc(CO)c(CO)c1O [vitamin B6, pyridoxine]
serotonin synthesis in the brain (primate brain): increased serotonin synthesis | dream salience (humans): increase in dream salience

Cc1ncc(C[n+]2csc(CCO)c2C)c(N)n1 [thiamine]
attention (decision times in choice reaction time tasks) (young females): improved attention | mood (Profile of Mood States) (young females): improved mood

NCC(O)c1ccc(O)cc1 (stereo not shown) [OCT, octopamine]
TAAR1 activation (cAMP production) (rhesus monkey TAAR1): activates TAAR1

NCCc1ccccc1 [β-PEA, 2-phenylethylamine]
uptake of dopamine by its transporter [2]: reduces the uptake of the monoamines | uptake of norepinephrine by its transporter [3]: reduces the uptake of the monoamines | TAAR1 activation (cAMP production) (rhesus monkey TAAR1): activates TAAR1 | uptake of serotonin by its transporter [4]: reduces the uptake of the monoamines

NCCc1c[nH]c2ccccc12 [TRY, tryptamine]
TAAR1 activation (cAMP production) (rhesus monkey TAAR1): activates TAAR1

CN(C)CCc1ccc(O)cc1 [hordenine, N,N-dimethyltyramine]
potency in stimulating cAMP production through the rTAR1 [1]: almost identical potency to that of the same concentration of β-phenethylamine | blood pressure (dogs and rats): increased systolic and diastolic blood pressure | effect on the heart (strength of contraction) (dogs and rats): positive inotropic effect on the heart | movements of the gut (dogs and rats): inhibited | peripheral blood flow (dogs and rats): increased the volume of peripheral blood flow | heart rate (horses; 2 mg/kg intravenous (IV)): doubled | increase of the rate of respiration (horses; 2 mg/kg intravenous (IV)): 250% | respiratory distress (horses; 2 mg/kg intravenous (IV)): substantial respiratory distress | time until all effects disappeared (horses; 2 mg/kg intravenous (IV)): ≤ 30 min | effects after oral dosing (horses; same dose (2 mg/kg) given orally): did not produce any of the effects seen after parenteral administration
